Source: US7981871B2, “Modified macromolescules and associated methods of synthesis and use” (University of Utah Research Foundation, priority 2003, dated 2011)

Legend:
Assay in all cases: Sensitivity to PI3K inhibitor and Taxol in 3-D culture (Carbylan-GSX hydrogels)
Format in all cases: cell-based, Human
HCA7 = conditions: 10 mM LY-294002 or 1 mg/ml paclitaxel, two weeks
Procedure: (§1) Human breast cancer cell lines (MDA-MB-231 and MDA-MB-468), colon adenocarcinoma cell lines (Caco2, HCT116, and HCA7), and ovarian cancer cell (SK-OV-3) were obtained from American Type Culture Collections (ATCC) and maintained in RPMI 1640 medium (GIBCO) supplemented with 10 mM HEPES, 10% fetal bovine serum (Hyclone), 0.4 mM sodium pyruvate, and […], 100 U/ml penicillin, and 100 ug/ml streptomycin.
(§2) When reaching 80-90% confluence, the above cell lines were trypsinized with 0.25% trypsin containing 1 mM EDTA and suspended in 1.25% (w/v) Carbylan™-S and 3% (w/v) gelatin-DTPH in a 50:50 (v/v) ratio in serum-free RPMI medium (pH 7.4), and then 4% (w/v) solution of PEGDA in DPBS buffer was added to the Carbylan™-S/gelatin-DTPH solution at a ratio of 4:1 (Carbylan™-S :PEGDA, v:v) and mixed by vortexing for 30 second. The final concentration of cells in Carbylan™-GSX solution was 2.0×10^6/ml. Aliquots ([…]) of each reaction mixture loaded with cells were transferred by pipette into 24-well cell culture inserts (Coming incorporated, Coming, N.Y.) with 6.5 mm in diameter and […]. The cell loaded inserts were incubated in incubator (37° C. and 5% CO2) for two hours and then 2 ml of RPMI 1640 medium containing 10% FBS was added into each into each insert. The media were changed every two days. Two weeks after the initial culture, the media were removed from the inserts and changed with 10 mM of LY-294002 (Sigma) and 1 mg/ml of paclitaxel (Sigma) in RPMI 1640 medium containing 0.5% FBS. There were total eight inserts for each reagent each cell line. The media were also changed every two days. Two weeks after the media were changed to LY-294002 and paclitaxel containing media, the media were removed from the inserts and changed with 1.5 ml RPMI 1640 media containing 5% FBS and 15% (v/v) CellTiter 96 aqueous one solution cell proliferation assay (Promega, Madison, Wis.) and incubated in incubator (37° C. and 5% CO2) for three hours and then the reaction solution was transferred into 96-well plate ([…]) and the absorbance was read at 550 nm with an OPTI Max microplate reader (Molecular Devices). The inserts were rinsed twice with DPBS buffer and stained with FDA and PI at RT for 5 min and observed using a confocal laser scanning microscope (LSM 510, Carl Zeiss Microimaging, Inc., Thornwood, N.Y.).

CaCo-2 = system: CaCo-2
Procedure: as §1, §2

MDA-MB-231 = MDA-MB-231 in Carbylan-GSX; 10 mM LY-294002 or 1 mg/ml paclitaxel; two weeks
Procedure: as §1, §2

MDA-MB-468 = MDA-MB-468 in Carbylan-GSX; 10 mM LY-294002 or 1 mg/ml paclitaxel; two weeks
Procedure: as §1, §2

HCT116 = conditions: 10 mM LY-294002 or 1 mg/ml paclitaxel, two weeks
Procedure: as §1, §2

SK-OV-3 = system: SK-OV-3
Procedure: as §1, §2

CC(=O)O[C@H]1C(=O)[C@@]2(C)[C@H]([C@H](OC(=O)c3ccccc3)[C@]3(O)C[C@H](OC(=O)[C@H](O)[C@@H](NC(=O)c4ccccc4)c4ccccc4)C(C)=C1C3(C)C)[C@]1(OC(C)=O)CO[C@@H]1C[C@@H]2O [paclitaxel]
proliferation (CellTiter 96, absorbance at 550 nm) (HCA7): inhibited | proliferation (CellTiter 96, absorbance at 550 nm) (CaCo-2; CaCo-2 in Carbylan-GSX, 10 mM LY-294002 or 1 mg/ml paclitaxel, two weeks): inhibited | cell density in sECM hydrogels (FDA/PI staining) (CaCo-2; Caco-2, compared to cells cultured in normal medium): decreased | proliferation (CellTiter 96, absorbance at 550 nm) (MDA-MB-231): Neither LY294002 and paclitaxel showed any inhibition effects | proliferation (CellTiter 96, absorbance at 550 nm) (MDA-MB-468): inhibited | proliferation (CellTiter 96, absorbance at 550 nm) (HCT116): inhibited | 3-D morphology (FDA/PI staining) (SK-OV-3; SK-OV-3, compared to cells cultured in normal medium): no obvious difference | proliferation (CellTiter 96, absorbance at 550 nm) (SK-OV-3; SK-OV-3 in Carbylan-GSX, 10 mM LY-294002 or 1 mg/ml paclitaxel, two weeks): Neither LY294002 and paclitaxel showed any inhibition effects
